Earlier results in patent US20060127456A1, “Novel fiber-based consumer products based on new concepts of fiber modification” (priority 2004, published 2006).

II [Iodine]
increase of solubility (in 1% aqueous solution of PVP, versus water): ~17 fold
solubility in water (water): very sparingly soluble
